Assay results: the NIST ThermoML archive (doi:10.1021/acs.jced.9b00607)
Numbers after ± are expanded uncertainties.

Key:
[1] = 102 kPa, Liquid; for viscosity: Falling or rolling sphere viscometry; for mass density: Vibrating tube method
[2] = wn = mass fraction of the nth substance listed; details: 102 kPa, Liquid, w2 = 0; for viscosity: Falling or rolling sphere viscometry; for mass density: Vibrating tube method

Row | SMILES | viscosity ([1]; 283.15 K) | mass density ([1]; 283.15 K) | viscosity ([1]; 298.15 K) | viscosity ([1]; 313.15 K) | mass density ([1]; 313.15 K) | viscosity ([1]; 323.15 K) | mass density ([1]; 323.15 K) | viscosity ([1]; 333.15 K) | mass density ([1]; 333.15 K) | viscosity ([1]; 343.15 K) | mass density ([1]; 343.15 K) | viscosity ([1]; 353.15 K) | mass density ([1]; 353.15 K) | mass density ([1]; 298.15 K) | other results
1 | OCCO [1,2-ethanediol] | 34.07 ± 4.1 mPa·s | 1120 ± 0.2 kg/m3 | 17.27 ± 1.1 mPa·s | 9.69 ± 1.1 mPa·s | 1099.1 ± 0.3 kg/m3 | 6.81 ± 0.36 mPa·s | 1091.6 ± 0.1 kg/m3 | 5.28 ± 0.47 mPa·s | 1085 ± 0.1 kg/m3 | 4.06 ± 0.46 mPa·s | 1077.6 ± 0.1 kg/m3 | 3.21 ± 0.31 mPa·s | 1070.1 ± 0.1 kg/m3 |  | 
2 | OCCO [1,2-ethanediol] + CN(CCO)CCO |  |  |  |  |  |  |  |  |  |  |  |  |  |  | viscosity ([2]; 283.15 K): 34.07 ± 4.1 mPa·s; mass density ([2]; 283.15 K): 1120 ± 0.2 kg/m3; viscosity ([2]; 298.15 K): 17.27 ± 1.1 mPa·s; viscosity ([2]; 313.15 K): 9.69 ± 1.1 mPa·s; mass density ([2]; 313.15 K): 1099.1 ± 0.3 kg/m3; viscosity ([2]; 323.15 K): 6.81 ± 0.36 mPa·s; mass density ([2]; 323.15 K): 1091.6 ± 0.1 kg/m3; viscosity ([2]; 333.15 K): 5.28 ± 0.47 mPa·s; mass density ([2]; 333.15 K): 1085 ± 0.1 kg/m3; viscosity ([2]; 343.15 K): 4.06 ± 0.46 mPa·s; mass density ([2]; 343.15 K): 1077.6 ± 0.1 kg/m3; viscosity ([2]; 353.15 K): 3.21 ± 0.31 mPa·s; mass density ([2]; 353.15 K): 1070.1 ± 0.1 kg/m3
3 | CN(CCO)CCO [N-methyldiethanolamine] | 198.15 ± 9.4 mPa·s | 1048 ± 0.3 kg/m3 | 74.87 ± 1.5 mPa·s | 35.05 ± 1.1 mPa·s | 1025.3 ± 0.3 kg/m3 | 21.96 ± 0.43 mPa·s | 1017.7 ± 0.2 kg/m3 | 14.83 ± 0.49 mPa·s | 1010 ± 0.2 kg/m3 | 10.29 ± 0.54 mPa·s | 1002.2 ± 0.2 kg/m3 | 7.4 ± 0.32 mPa·s | 994.5 ± 0.2 kg/m3 | 1036.8 ± 0.3 kg/m3 | 
4 | O [water] | 1.32 ± 0.01 mPa·s | 999.9 ± 0.1 kg/m3 | 0.91 ± 0.01 mPa·s | 0.67 ± 0.01 mPa·s | 992.3 ± 0.1 kg/m3 | 0.57 ± 0.01 mPa·s | 988.3 ± 0.1 kg/m3 |  | 983.5 ± 0.1 kg/m3 |  | 978.1 ± 0.1 kg/m3 |  | 972.3 ± 0.1 kg/m3 | 997.2 ± 0.1 kg/m3 | 
